One data set relates to NCI-H460. In words: In vitro antiproliferative assay (14C-thymidine uptake), H460 cells. The note with it: 72 h incubation, then 14C-thymidine uptake recorded 24 h later. The format is cell-based, human. How it is done: (§1) • CCRF-CEM is a human T-cell leukemia cell line (DSMZ ref ACC 240), established in 1964 from peripheral blood of young child bearing a terminal-stage ALL (Foley et al., Cancer 18: 522-529 (1965)). • NCI-H460 is a human epidermoïd lung tumour cell line, obtained from the NCI (NCI-Frederick. Tumor Bank). • MX1 is a human mammary carcinoma tumour, harbouring BRCA1 mutation, obtained from NCI (NCI-Frederick. Tumor Bank).
(§2) Tumour cells were grown in appropriate culture medium, either RPMI-1640 or DMEM, complemented with 10% calf-fetal serum and antibiotics.
(§3) Cell proliferation was evaluated by ^14C-thymidine uptake in DNA. Exponentially growing cells - from 5.10^3 to 10^4 per well in 180 µL culture medium - were introduced in a 96-wells microtitration Cytostar-T apparatus (GE Healthcare Bio-Sciences, Uppsala, Sweden). After 4 hours pre-incubation under CO2 atmosphere at 37°C, compounds were added in 10 µL volume. After incubation for an additional 72 hours period, 0.1 µCi ^14C-thymidine was added in each well, C^14 -thymidine uptake was recorded 24 hours later on a scintillation counter (Perkin-Elmer Life Sciences, Boston, MA, USA). IC50, defined as the dose which inhibits 50% of cell proliferation, were thus determined.

In the next data set the test system is CCRF-CEM. In words: In vitro antiproliferative assay (14C-thymidine uptake), CEM cells. Format: cell-based, human. Particulars: 72 h incubation, then 14C-thymidine uptake recorded 24 h later. How it is done:
as §1, §2, §3

In a further data set the test system is MX1 tumor. In words: In vivo antitumor evaluation in MX1 tumor model. More on the design: species or system SCID mice. The note with it: for SRI activity rating: day 10 to day 15 post tumor implantation.
Source text: as §1
(§4) 7 to 8 weeks-old female SCID mice, obtained from Charles River (L'Arbresle, Lyon , France) were acclimated for at least 1 week previous experiment.
Animals, placed under normal light cycle, had then ad libitum access to food and water. MX1 cells, 10^7 cells per mouse initially grown in RPMI medium supplemented with 10% foetal-calf serum and antibiotics, were subcutaneously implanted in mice. When […] tumour volume was reached, fragments (2-3 mm diameter) were cut, placed in phosphate buffer (PBS), bilaterally implanted and further passaged in mice until tumour growth rate is stable, before starting the experiment. Tumors were measured with a caliper twice weekly until the tumor reached 2000 mm^3 or until the animal died (which ever come first). Tumor volumes were estimated from 2 dimensional measurements: Volume (in mm^3) = (a x b^2)/2, where a and b are the tumor length and width (mm) respectively. The variation from the baseline of the tumoral volume is calculated in the treated and control group. These values are used to calculate the median in the treated group (ΔT) and in the control group (ΔC). ΔT/ΔC, expressed as a percentage, is the ratio of median at a chosen day (the last day before it becomes necessary to sacrifice control mice owing to tumor size). ΔT/ΔC values can be translated into an activity rating, according to the Southern Research Institute (SRI) criteria:
(§5) When ΔT/ΔC values are negative, the percentage of regression is evaluated. A Partial regression (PR) is defined as a decrease in tumor volume greater than or equal to 50% of the tumor volume at start of treatment. A Complete regression (CR) is defined as a decrease in tumor volume below the limit of palpation (T=10mm^3). At the end of the study, the number of tumor free survivor (TFS) which correspond to mice without any detectable tumor is determined. Both drug-related deaths and maximum percent relative mean net body weight loss are also determined. A body weight loss (mean of group) of greater than 15% for more than 3 consecutive days or 20% weight loss for one day or 10% drug deaths are considered to indicate an excessively toxic dosage.

Data set [1] can be described thus: Toxicity (body weight loss, drug deaths) in the MX1 tumor model study. The format is in vivo, SCID mice. How it is done:
as §4, §5

Where [2] appears, read: i.v. daily during 5 days at 5 mg/kg.
The mark [3] stands for this setting: i.v. daily during 5 days at 5 mg/kg (25 mg/kg total dose).
[4] abbreviates: i.v. daily during 5 days at 10 mg/kg.
Setting [5] is: i.v. daily during 5 days at 10 mg/kg (50 mg/kg total dose).

As usually defined, the IC50 is the midpoint of a concentration-inhibition curve. A higher IC50 goes with lower potency.

In the case of `N.N.[Cl][Pt][Cl]` [cisplatin, reference compound], the values for the IC50 with NCI-H460 and in the data set on CCRF-CEM were 2600 to 4000 nM and 400 to 800 nM, respectively.

As for `O=C1[O][Pt]2([NH][C@@H]3CCCC[C@H]3[NH]2)[O]C1=O` [oxaliplatin, reference compound], the IC50 in the data set with NCI-H460 was 2400 nM; with CCRF-CEM it was 4000 nM.

`CC(=O)[O][Pt]([NH2])([Cl])([Cl])([NH]C1CCCCC1)[O]C(C)=O` [satraplatin, reference compound]: the IC50 with NCI-H460 is 190 nM; in the data set on CCRF-CEM, 400 nM.

Consider “Trans-trans-trans-{PtCl2(OH)2(dimethylamine)[(exo)-2- norbornylamine]} [EXAMPLE 3]”, for which the figures for the IC50 in the data set with NCI-H460 and in the data set with CCRF-CEM were 315 nM and 31 nM, respectively.

Take “Trans-trans-trans-{PtCl2(OH)2(isopropylamine)[(rac)-(endo)-norbornylamine]} [EXAMPLE 2]”: the IC50 in the data set on NCI-H460 was found to be 255 nM; in the data set with CCRF-CEM, 25 nM.

Take “Trans-trans-trans-{PtCl2(OH)2(isopropylamine)[(rac)-(exo)-norbornylamine]} [EXAMPLE 1]”: the half-maximal inhibitory concentration (IC50) turned out to be 532 nM with NCI-H460 and 53 nM in the data set on CCRF-CEM. Further, the “CR (complete regression)” value in the data set on MX1 tumor (setting [2]) and in the data set with MX1 tumor (setting [4]) was 100% throughout. The ΔT/ΔC in the data set with MX1 tumor (setting [3]) and with MX1 tumor (setting [5]) was less than 0% each time. Also, the SRI activity rating entry in the data set with MX1 tumor (setting [3]) and in the data set with MX1 tumor (setting [5]) was “highly active” in each case. The “TFS (tumor free survivor) at the end of the study” value in the data set on MX1 tumor (setting [4]) was 2. In addition, the toxicity for mice result in data set [1] (20 mg/kg) was “toxic”. Also, the deaths in data set [1] (20 mg/kg, deaths on days 17, 19, 20, 21 and 24 (2 mice)) was 6/6. Moreover, the body weight loss was found to be 4% in data set [1] (setting [2]) and 12% in data set [1] (setting [4]). The drug death result in data set [1] (setting [2]) and in data set [1] (setting [4]) was “no drug death” in each case. Besides, the maximal tolerated dose in data set [1] (i.v., daily for 5 days schedule) turned out to be 10 mg/kg.

For the origin of these results see EP2404925A1, “New all trans platinum (IV) complexes, their preparation and their use as antitumor agents” (Universidad Autónoma de Madrid, priority 2010, dated 2012).
